The values that follow come from PMC11874007, “Switching Roles—Exploring Concentration-Dependent Agonistic versus Antagonistic Behavior of Integrin Ligands” (Journal of Medicinal Chemistry, 2025).

Experiment [1] relates to FAK, p-FAK, p44/42erk-1/2, p-p44/42erk-1/2 in α5β1+ OV-MZ-6 cells. Description: Western blot of FAK and p44/42erk-1/2 expression and activation, OV-MZ-6 cells. The experiment is classed as cell-based. The note with it: for p-FAK, transient elevation, n-fold of untreated cells: concentration not specified. How it is done:
Since agonistic ligand performance requires integrin activation and signaling, by Western blot analysis, we studied whether the different ligands alter the expression levels and activation states of FAK and p44/42^(erk-1/2). For this, the respective target integrin-expressing tumor cell types were incubated with the corresponding subtype-selective ligand at a concentration of 1 μM for 24 h (Figure 8). […] Signal intensities of FAK and p44/42^(erk-1/2) expression and activation (p-FAK and p-p44/42^(erk-1/2)) on Western blots were evaluated by densitometry. Data are depicted as GAPDH-normalized fluorescence signal intensities as n-fold, by setting values obtained for the respective untreated cells to “1”. […] MAPK p44/42^(erk-1/2) expression was approximately 2.2-fold augmented, p44/42^(erk-1/2) by approximately 2.5-fold. It also raised activation of p-FAK and p-p44/42^(erk-1/2) by approximately 2.2-fold and 3.1-fold, respectively, in α5β1+ OV-MZ-6 cells. […] Additionally, it raised FAK (approximately 1.7-fold) and p-p44/42^(erk-1/2) (approximately 2.4-fold) in α5β1+ OV-MZ-6 cells.
Figure 8 Effects of ligands on cellular expression and activation of integrin-related signaling molecules FAK and p44/42^(erk-1/2). […] Signal intensities for FAK and p-FAK, respectively, were evaluated by use of the Bio-Rad Imager Gel Doc XR+ and a ChemiDoc XRS+ Systems and the software Image Lab. Shown are typical representative Western blot images and the corresponding histograms depicting GAPDH-normalized signal intensities as n-fold by setting the values obtained for untreated cells to “1” (drawn as black line). For each cell line, cutouts of identical gels are depicted.
In order to capture early and transient changes in signaling activation following ligand treatment, we next reduced the observation periods to 5, 30, or 60 min and assessed FAK expression and activation. […] Depicted are typical Western blot images and the corresponding densitometrical evaluations of GAPDH-normalized signal intensities as n-fold, by setting that of the respective untreated cell type to “1” (Figure 9). […]
The kinases (p-)p44/42^(erk-1/2) and (p-)FAK were detected as previously published.[15],[8] Briefly, cells were grown for 18 h on six-well plates in DMEM (0.45 Mio cells/well). After medium exchange, fresh medium with L1–L5 (concentration: 1.0 μM, 2 mL/well) was added, and cells were incubated for another 24 h at 37 °C. In a second series, cells were incubated with L1–L5 (1 μM or 1 nM) for 5, 30, or 60 min. Thereafter, the cellular proteins were extracted and processed by Western blotting. Proteins were visualized using the Pierce ECL chemiluminescent substrate (Thermo Fisher Scientific). Band signal intensities for (p-)p44/42^(erk-1/2) and (p-)FAK were evaluated using the Bio-Rad Imager Gel Doc XR + and ChemiDoc XRS + Systems and the software Image Lab. Differences in protein loading and blotting efficiency were normalized by reprobing the membranes with a monoclonal antibody directed to GAPDH. Signal intensities for protein bands of interest were normalized to those recorded for GAPDH. Typical Western blot images are depicted together with histograms summarizing the mean values of normalized fluorescence signal intensities as n-fold, by setting those obtained for untreated cells to “1”.
(In general: A western blot detects proteins with antibodies after separation by electrophoresis.)

The subject of another experiment is α5β1+ OV-MZ-6 cells. The experiment can be described thus: Wound scratch cell migration assay, OV-MZ-6 cells. The experiment is classed as cell-based. The note with it: for Effect on wound gap closure / cell migration: OV-MZ-6 cells. How it is done:
As a biological readout for integrin signaling, we analyzed ligand effects on cell adhesion and migration by wound scratch assays (Figure 10A,B). […] Microscopical images were taken directly after wounding the cell monolayers and then after 9, 24, 48, and 72 h, respectively.
Figure 10 (A) Effect of integrin ligands on cancer cell migration. […] Microscopical measurements of wound gaps were taken directly after setting the wound scratch and then after 9, 24, 48, and 72 h, respectively. Wound scratch assays were repeated at least three times. The extent of wound gap closure [%]/cell coverage was calculated by a python script utilizing Canny’s Edge Detection algorithm as described under Materials and summarized in the corresponding histograms (see also Scheme S5 in the Supporting Information). (B) Adhesion of M21, OV-MZ-6, and HN cells in the presence of the respective integrin targeting ligand at low (1 nM) and high (1 μM) concentrations. […] Depicted are typical microscopical images of the respective cell monolayers.
The assays were performed according to a modified protocol as previously published.[94] Cells were cultivated on fibronectin-coated 12-well cell culture plates until cell monolayers reached an approximately 80% confluency. Then, the wound scratch was set utilizing a 200 μL pipet tip. Subsequently, fresh culture medium was added in the absence or presence of L1–L5 (concentration: 1 μM or 1 nM), and microscopical images (Zeiss, Oberkochen, Germany) were taken at two identical positions of the wound gap directly after wounding and then at 9, 24, 48, or 72 h of further cell cultivation. Each wound scratch assay was repeated three times. A custom python script was implemented to analyze wound gap closure over time: after cropping the images, we used the OpenCV[95] implementation of Canny’s Edge Detection Algorithm[96] to ensure reliable measurements even with variable lighting conditions.[97] As a first step, a 5 × 5 Gaussian filter was applied to remove background noise. The smoothened images were then filtered by a Sobel kernel[98] and the magnitude and direction of the intensity gradient of the images calculated. Then, a non-maximum suppression algorithm was applied to identify relevant pixels that presumably contribute to edges. In a final step, threshold hysteresis was utilized to distinguish true edges from variations in intensity or the remaining background noise. The resulting images were then segmented and binarized by use of a grid filter and analyzed with respect to cell-covered area relative to the start image of each series.
Scheme S5. Effect of integrin ligands on cancer cell migration (control cells to Fig. 10A in the main manuscript). a) Integrin αvβ3- OV-MZ-6 cells, α5β1- M21 cells, α5β1+ and αvβ3- and […]
mages of wound gaps were taken directly after setting the wound scratch and then after […], respectively. Wound scratch assays were repeated at least 3 times. The extent of wound gap closure [%]/cell coverage was calculated by a python script utilizing Canny’s Edge Detection algorithm11 as described in the Experimental Section and summarized in the corresponding histograms.
(1 picture or pasted object on this page, not shown here)

Where [2] appears, read: concentration not specified or both, within 60 min.

Turning to `C#CCCC(=O)NCCCOc1ccc(C(=O)N[C@H](CC(=O)O)Cc2ccc(OCCCNc3cc(OC)ccn3)cc2)cc1` [L1, (S)-4-(4-(3-((4-Methoxypyridin-2-yl)amino)propoxy)phenyl)-3-(4-(3-(pent-4-ynamido)propoxy)benzamido)butanoic Acid], in experiment [1] (1 μM, 24 h, GAPDH-normalized), the “FAK, n-fold of untreated cells” value is “approximately 1.7 fold” and the “p-p44/42erk-1/2, n-fold of untreated cells” value is listed as “approximately 2.4 fold”. The “FAK expression versus untreated cells” value in experiment [1] (setting [2]) was “transient slight increase”. For the same compound, the “p-FAK, transient elevation, n-fold of untreated cells” value in experiment [1] (within 60 min) is listed as “approximately twofold”. Also, the “Effect on wound gap closure / cell migration” value with α5β1+ OV-MZ-6 cells (1 nM) is given as “not observed”. For the same compound, the “Effect on wound gap closure / cell migration” value with α5β1+ OV-MZ-6 cells (1 μM) is reported as “more efficient blockade of cell migration than in M21 cells”.

Turning to `C#CCCC(=O)NCCCOc1cc(C)c(C(=O)N[C@@H](CNC(=O)CNC(=O)c2cccc(NC(=N)N)c2)C(=O)O)c(C)c1` [L5, (S)-2-(2,6-Dimethyl-4-(3-(pent-4-ynamido)propoxy)benzamido)-3-(2-(3-guanidinobenzamido)acetamido)propanoic Acid], in experiment [1] (1 nM, 5, 30 or 60 min), the “FAK levels, n-fold of untreated cells” value is “approximately 1.6 fold” and the “p-FAK, highest or initial elevation, n-fold of untreated cells” value is on record as “approximately threefold”. In addition, the “p-FAK, highest induction at 30 min, n-fold of untreated cells” value in experiment [1] (1 μM) is listed as “approximately fourfold”. For the same compound, the “FAK expression versus untreated cells” value in experiment [1] (1 μM, 5, 30 or 60 min) is recorded as “equal to or only slightly higher than that in untreated cells”. Also, in experiment [1] (1 μM, 24 h), the “(p-)FAK and (p-)p-44/42erk-1/2” value was “did not modulate”. Also, the “Effect on wound gap closure / cell migration” value in the experiment on α5β1+ OV-MZ-6 cells (1 nM) was “did not alter their migratory capacity”. For the same compound, the “Effect on wound gap closure / cell migration” value in the experiment with α5β1+ OV-MZ-6 cells (1 μM) was “blocked migration”.

As for c(FRGDLAFp(NMe)K) [L3], the “FAK expression versus untreated cells” value in experiment [1] (setting [2]) is given as “no effect”. For the same compound, the “p-FAK, transient elevation, n-fold of untreated cells” value in experiment [1] (within 60 min) was “approximately 2.9 fold”. Also, the “Effect on wound gap closure” value with α5β1+ OV-MZ-6 cells (αvβ6- OV-MZ-6 cells, concentration not specified) is “delayed wound gap closure”.
